Data on 15 sequences can be found in patent publication US11559575B2, “Multi-epitopic peptide compounds and vaccines against leishmaniasis” (INSTITUT DE RECHERCHE POUR LE DEVELOPPEMENT, priority 2018, dated 2023).

For the assay, the system named is HLA alleles of class II. Kind of assay: Affinity of epitopes for HLA alleles of class II. Format: binding, human. As to conditions: for Concatenation affinity for the HLA alleles of class II: H2B-II peptides, Table 1. An excerpt: The multiepitopic peptide compounds (24 to 40-mer), having a high affinity with a maximized number of HLA molecules of class I and of class II, such as the affinities for the alleles HLA of class I and HLA of class II of the epitopes in the peptides of the sequences SEQ ID NO: 22, 23, 65, 66, 69, 73, 77, 96, 97, 137, 138, and 157, 185, have a high immunoprevalent potential corresponding to an optimal vaccine coverage, in particular for the populations concerned. The degree of coverage of the peptide compounds of the invention show a very high added value compared with the peptides of the prior art.

“Also recorded” adds a separate entry of the source.

For the sequence “SDYSHSMIRDLDFSN (listed as Leishmania infantum) [SEQ ID NO: 166]”, for the setting “PSA KC-2.7 peptides, Table 3”, the “Concatenation affinity for HLA alleles of class II” value is listed as “HLA-DRB1*04:05, HLA-DRB1*07:01,; also recorded: HLA-DRB1*12:01, HLA-DRB1*09:01,; also recorded: HLA-DRB4*01:01,; also recorded: HLA-DPA1*02:01/DPB1*14:01”. With “RSENAIVTSRKVQEE (Leishmania major) [SEQ ID NO: 112]”, the “Concatenation affinity for HLA alleles of class II” value (LmlRAB-IIB peptides, Table 2) is recorded as “HLA-DRB1*01:01, HLA-DRB1*03:01,; also recorded: HLA-DRB1*07:01, HLA-DRB1*11:01,; also recorded: HLA-DRB5*01:01”. Still for that read-out and setting: with “ENAIVTSRKVQEEVF (Leishmania major) [SEQ ID NO: 101]” the entry was “HLA-DRB1*03:01, HLA-DRB1*07:01,; also recorded: HLA-DRB1*08:02, HLA-DRB1*11:01,; also recorded: HLA-DRB1*12:01”. Turning to “SVVGRHLSIVADHMP (Leishmania major) [SEQ ID NO: 83]”, the “Concatenation affinity for HLA alleles of class II” value (LmLRAB-IIA peptides, Table 2) is “HLA-DRB1*15:01”. As to “IVTSRKVQEEVFDLF (Leishmania major) [SEQ ID NO: 105]”, the “Concatenation affinity for HLA alleles of class II” value (LmlRAB-IIB peptides, Table 2) is recorded as “HLA-DRB1*03:01, HLA-DRB1*11:01,; also recorded: HLA-DPA1*01:03/DPB1*02:01,; also recorded: HLA-DPA1*01/DPB1*04:01,; also recorded: HLA-DPA1*02:01/DPB1*05:01,; also recorded: HLA-DPA1*02:01/HLA-DPB1*14:01”. Turning to “SWNVYVGRSLKAINA (Leishmania major) [SEQ ID NO: 29]”, the “Concatenation affinity for the HLA alleles of class II” value is recorded as “HLA-DRB5*01:01, HLA-DRB1*04:05, HLA-DPA1*03:01/; also recorded: DPB1*04:02, HLA-DRB1*01:01, HLA-DRB1*03:01,; also recorded: HLA-DRB1*04:01, HLA-DRB1*11:01, HLA-DRB1*13:02,; also recorded: HLA-DRB1*07:01, HLA-DRB1*09:01, HLA-DRB1*15:01,; also recorded: HLA-DPA1*02:01/DPB1*01:01, HLA-DRB1*08:02”.

In the case of “SGEGYFLTDEKTSLV (listed as Leishmania infantum) [SEQ ID NO: 144]”, where the note is “PSA KC-2.6 peptides, Table 3”, the “Concatenation affinity for HLA alleles of class II” value is listed as “HLA-DRB1*01:01, HLA-DRB1*03:01,; also recorded: HLA-DRB1*04:01, HLA-DRB1*04:05,; also recorded: HLA-DRB1*07:01, HLA-DRB1*11:01,; also recorded: HLA-DRB3*01:01, HLA-DRB3*02:02,; also recorded: HLA-DPA1*02:01/DPB1*01:01”. On to “NAIVTSRKVQEEVFD (Leishmania major) [SEQ ID NO: 109]”, for which, under “LmlRAB-IIB peptides, Table 2”, the “Concatenation affinity for HLA alleles of class II” value is reported as “HLA-DRB1*03:01, HLA-DRB1*07:01,; also recorded: HLA-DRB1*08:02, HLA-DRB1*11:01,; also recorded: HLA-DRB1*12:01”. For the sequence “HLSIVADHM (Leishmania major) [SEQ ID NO: 88]”, the “Concatenation affinity for HLA alleles of class II” value (LmLRAB-IIA core, Table 2) is reported as “HLA-DRB1*01:01”. As for “LKAINAQMSMSHRTM (Leishmania major) [SEQ ID NO: 38]”, the “Concatenation affinity for the HLA alleles of class II” value is on record as “HLA-DRB1*07:01, HLA-DRB1*04:01, HLA-DRB1*04:05,; also recorded: HLA-DRB1*09:01, HLA-DRB1*11:01, HLA-DRB1*15:01,; also recorded: HLA-DRB5*01:01, HLA-DRB1*01:01, HLA-DRB4*01:01,”. Consider “KRSWNVYVGRSLKAI (Leishmania major) [SEQ ID NO: 27]”, for which the “Concatenation affinity for the HLA alleles of class II” value was “HLA-DRB1*01:01, HLA-DRB1*03:01, HLA-DRB1*04:01,; also recorded: HLA-DRB1*11:01, HLA-DRB1*13:02, HLA-DRB1*07:01,; also recorded: HLA-DRB1*09:01, HLA-DRB1*15:01, HLA-DRB5*01:01,; also recorded: HLA-DPA1*02:01/DPB1*01:01”. With “GRSLKAINAQMSMSH (Leishmania major) [SEQ ID NO: 35]”, the “Concatenation affinity for the HLA alleles of class II” value was “HLA-DRB1*15:01, HLA-DRB1*01:01, HLA-DRB1*04:05,; also recorded: HLA-DRB1*07:01, HLA-DRB1*08:02, HLA-DRB1*09:01,; also recorded: HLA-DRB1*11:01, HLA-DRB4*01:01, HLA-DRB5*01:01,; also recorded: HLA-DRB1*04:01, HLA-DRB1*13:02”.

“VGRSLKAINAWMSMS (VGRSLKAINAQMSMS; Leishmania major) [SEQ ID NO: 34]”: the “Concatenation affinity for the HLA alleles of class II” value is “HLA-DRB1*01:01, HLA-DRB1*04:05, HLA-DRB1*07:01,; also recorded: HLA-DRB1*09:01, HLA-DRB4*01:01, HLA-DRB5*01:01,; also recorded: HLA-DRB1*04:01, HLA-DRB1*08:02, HLA-DRB1*11:01,; also recorded: HLA-DRB1*13:02”. On the same count and under the same terms, with “INAQMSMSHRTMKIV (Leishmania major) [SEQ ID NO: 41]” the entry was “HLA-DRB1*04:01, HLA-DRB1*15:01, HLA-DRB1*05:01,; also recorded: HLA-DRB1*03:01, HLA-DRB1*09:01, HLA-DRB1*11:01,; also recorded: HLA-DRB1*01:01, HLA-DRB4*01:01, HLA-DRB1*07:01,; also recorded: HLA-DRB1*13:02”. For “YSHSMIRDLDFSNMG (listed as Leishmania infantum) [SEQ ID NO: 170]”, the “Concatenation affinity for HLA alleles of class II” value (PSA KC-2.7 peptides, Table 3) is reported as “HLA-DRB1*04:01, HLA-DRB1*04:05,; also recorded: HLA-DRB1*07:01, HLA-DRB1*08:02,; also recorded: HLA-DRB1*09:01, HLA-DRB1*12:01,; also recorded: HLA-DRB4*01:01”.
